# Data taken from ChEMBL document CHEMBL1134457, “Medicinal chemistry of neuronal voltage-gated sodium channel blockers” (J Med Chem, 2001).
# How the values were obtained:
# [1] = test system: Rattus norvegicus; test: In vivo anticonvulsant activity to prevent seizures from maximum electroshock (MES) […]; assay type: functional
# [2] = species: Rattus norvegicus; test: Neuroprotective activity was determined in the rat middle cerebral artery occlusion (MCAO) model of focal stroke; assay type: functional; conditions: read-out: MED
# [3] = Inhibition of veratridine-induced guanidine flux in cardiac voltage-gated sodium channel (veratridine block vs. Na release); assay type: functional, tissue-based, Rattus norvegicus, Heart
# [4] = Inhibition of [3H]BTX binding to cardiac voltage-gated sodium channel; set-up: species or system Rattus norvegicus
# [5] = Potency against voltage-gated calcium channel [45[Ca2+]]; assay type: functional
# [6] = biological target: GABA-A receptor; anion channel; test: Anticonvulsant activity against gamma-aminobutyric acid receptor; assay type: functional
# [7] = In vivo toxic dose in rotarod assay; assay type: ADME, organism-based; conditions: rat
# [8] = test system: Gerbillinae; test: Neuroprotective activity was determined in the rat middle cerebral artery occlusion (MCAO) model of focal stroke in gerbil; assay type: functional; conditions: read-out: MED
# [9] = Effective dose was determined after intraperitoneal administration in the MES model; assay type: functional; conditions: Rattus norvegicus, ip
# [10] = Inhibition of [3H]-BTX binding to cardiac voltage-gated sodium channel; assay type: functional, Rattus norvegicus
# [11] = test system: Rattus norvegicus; test: In vivo anticonvulsant activity to prevent seizures from maximum electroshock (MES) […] after (i.v.) administration; assay type: functional; conditions: iv
# [12] = species: Rattus norvegicus; test: Minimum effective dose (MED) was determined in the rat middle cerebral artery occlusion (MCAO) model of focal stroke […]; assay type: functional; conditions: read-out: MED
# [13] = species: Rattus norvegicus; test: Neuroprotective activity was determined in the rat middle cerebral artery occlusion (MCAO) model of focal stroke using rotarod assay; assay type: functional; conditions: read-out: MED
# [14] = species: Rattus norvegicus; test: Minimum effective dose was determined in the rat middle cerebral artery occlusion (MCAO) model of focal stroke […]; assay type: functional; conditions: read-out: MED
smiles,measurement,setting,value
NC(=O)C12NC(Cc3ccccc31)c1ccccc12 (stereo unspecified),ED50,[1],8.9 mg/kg
OC(COc1ccccc1)CN1CCC(c2ccc(Oc3ccccc3)cc2)CC1 (stereo unspecified),minimal effective dose,[2],3 mg/kg
same,IC50,[3],220 nM
CC1CCCC(C)N1CCCNC(=O)C(c1ccccc1)c1ccccc1 (stereo unspecified),IC50,[3],5000 nM
same,IC50,[4],46 nM
NC(=O)NNCc1ccc(Oc2ccc(F)cc2)cc1,ED50,[1],4.2 mg/kg
CCC(C)c1ccc(N2CCCN(c3ccc(C(C)CC)cc3)C2=N)cc1 (stereo unspecified),IC50,[3],60 nM
same,IC50,[5],390 nM
Nc1ncc(-c2cc(Cl)cc(Cl)c2Cl)c(N)n1,minimal effective dose,[2],20 mg/kg
same,IC50,[3],1600 nM
Cc1cccc(C)c1N1C(=O)c2ccc(N)cc2C1=O,IC50,[4],110 nM
CCOc1ccccc1OCCN1CCC2(CC)c3cccc(O)c3CC1C2(C)C (stereo unspecified),minimal effective dose,[2],2 mg/kg
CCC1(Cc2ccccc2)CCCNC1=O (stereo unspecified),IC50,[6],487000 nM
COC(=O)c1[nH]cc(-c2ccc(Br)cc2)c1N1CCOCC1,ED50,[1],2.5 mg/kg
same,TD50,[7],> 500 mg/kg
CC(NCc1ccc(OCc2cccc(F)c2)cc1)C(N)=O (stereo unspecified),ED50,[1],4.1 mg/kg
COc1ccc(/N=C(\N)Nc2ccc3c4c(cccc24)CC3)c2ccccc12,IC50,[3],1640 nM
same,minimal effective dose,[8],30 mg/kg
Cc1cccc(C)c1NC(=O)Nc1ccncc1,IC50,[4],29000 nM
NC1CCc2c(-c3ccccc3)[nH]c3cccc1c23 (stereo unspecified),IC50,[3],4100 nM
same,IC50,[4],1100 nM
Cc1cccc(C)c1NC(=O)/C=C1/SCC(=O)N1C,ED50,[1],2.8 mg/kg
same,IC50,[4],25000 nM
Nc1ncnnc1-c1cc(Cl)cc(Cl)c1Cl,ED50,[1],1.7 mg/kg
same,TD50,[7],40 mg/kg
COC(=O)[C@@H]1C(=O)C=C(Nc2ccc(Cl)cc2)C[C@H]1C,ED50,[1],26.2 mg/kg
same,TD50,[7],255 mg/kg
CN(C)CCOc1ccccc1-c1nc(-c2ccccc2)no1,ED50,[1],2.8 mg/kg
Nc1nccc2c1nnn2Cc1c(F)cccc1F,ED50,[1],6.3 mg/kg
Clc1ccc(-c2c[nH]nc2N2CCOCC2)cc1,ED50,[9],47 mg/kg
N=c1sc2ccccc2n1CCN1CCC(c2ccc(F)cc2)CC1,ED50,[1],3.9 mg/kg
same,minimal effective dose,[2],16 mg/kg
Cc1ccc(-c2nc(C)c(CN3CCN(C(c4ccc(F)cc4)c4ccc(F)cc4)CC3)[nH]2)cc1,IC50,[3],300 nM
same,IC50,[4],119 nM
COc1ccc(CCN(C)CCCC(C#N)(c2ccc(OC)c(OC)c2)C(C)C)cc1OC (stereo unspecified),IC50,[3],2500 nM
same,IC50,[4],2500 nM
"C[C@H](C(N)=O)N1CCC23CCCC[C@@H]2[C@@H]1Cc1ccc(OCc2cccc(F)c2)cc13 (single isomer, unassigned)",ED50,[1],18.1 mg/kg
Cc1cccc(C)c1NC(=O)c1ccc(N)cc1 [AMELTOLIDE],ED50,[1],13 mg/kg
CCCN(c1ccncc1)n1ccc2ccccc21 [BESIPIRDINE],IC50,[3],30000 nM
same,IC50,[4],5500 nM
NC(=O)N1c2ccccc2C=Cc2ccccc21 [CARBAMAZEPINE],ED50,[1],3.4 mg/kg
same,minimal effective dose,[2],2 mg/kg
same,IC50,[3],30000 nM
same,IC50,[4],131000 nM
same,TD50,[7],27.4 mg/kg
COc1ccccc1OCCNCC(O)COc1cccc2[nH]c3ccccc3c12 (stereo unspecified) [CARVEDILOL],IC50,[3],306 nM
same,IC50,[4],1700 nM
Nc1cnc(-c2cc(Cl)cc(Cl)c2Cl)c(N)n1 [ELPETRIGINE],ED50,[1],1.13 mg/kg
same,TD50,[7],18.8 mg/kg
Cc1nc(OCCCCCN2CCCCC2)cc(-c2ccc(F)cc2)n1 [ENECADIN],minimal effective dose,[2],0.5 mg/kg
same,IC50,[3],7700 nM
same,IC50,[10],1000 nM
Fc1ccc(C(c2ccc(F)cc2)N2CCN(C/C=C/c3ccccc3)CC2)cc1 [FLUNARIZINE],IC50,[3],120 nM
same,IC50,[4],350 nM
Nc1nnc(-c2cccc(Cl)c2Cl)c(N)n1 [LAMOTRIGINE],ED50,[1],2.2 mg/kg
same,minimal effective dose,[2],20 mg/kg
same,IC50,[3],21000 nM
same,IC50,[4],114000 nM
same,TD50,[7],84 mg/kg
CCN(CC)CC(=O)Nc1c(C)cccc1C [LIDOCAINE],ED50,[1],87 mg/kg
same,IC50,[3],97000 nM
same,IC50,[4],113000 nM
same,TD50,[7],41 mg/kg
COc1ccc(CN2CCN(C(c3ccc(F)cc3)c3ccc(F)cc3)CC2)c(OC)c1OC [LOMERIZINE],IC50,[4],26 nM
CN(c1nc2ccccc2s1)C1CCN(C[C@H](O)COc2ccc(F)c(F)c2)CC1 [LUBELUZOLE],minimal effective dose,[2],0.3 mg/kg
same,IC50,[4],280 nM
Cc1cccc(C)c1OCC(C)N (stereo unspecified) [MEXILETINE],ED50,[1],2 mg/kg
O=C1NC(=O)C(c2ccccc2)(c2ccccc2)N1 [PHENYTOIN],minimal effective dose,[2],200 mg/kg
same,ED50,[11],10 mg/kg
same,IC50,[3],21000 nM
same,IC50,[4],40000 nM
CC(Cc1ccccc1)(NC(=O)CN)c1ccccc1 (stereo unspecified) [REMACEMIDE],minimal effective dose,[2],10 mg/kg
same,minimal effective dose,[12],100 mg/kg
Nc1nc2ccc(OC(F)(F)F)cc2s1 [RILUZOLE],minimal effective dose,[2],4 mg/kg
same,IC50,[3],4000 nM
same,minimal effective dose,[13],30 mg/kg
CN1CCN(c2ncc(-c3cc(Cl)cc(Cl)c3Cl)c(N)n2)CC1 [SIPATRIGINE],minimal effective dose,[2],30 mg/kg
same,minimal effective dose,[14],60 mg/kg
same,IC50,[3],5300 nM
CC1(C)O[C@@H]2[C@@H](CO[C@@]3(COS(N)(=O)=O)OC(C)(C)O[C@@H]23)O1 [TOPIRAMATE],ED50,[1],39 mg/kg
NS(=O)(=O)Cc1noc2ccccc12 [ZONISAMIDE],minimal effective dose,[2],100 mg/kg
